Assay results from ChEMBL document CHEMBL4311942, “Design of Trp-Rich Dodecapeptides with Broad-Spectrum Antimicrobial Potency and Membrane-Disruptive Mechanism” (J Med Chem, 2019).
In brackets after ≈: the same amount, converted by molar mass. Activity calls are given as the source filed them. No cut-off for these calls is given here. Where a SMILES comes first, the peptide text is derived from it.

Columns and labels:
Staphylococcus aureus [1] = assay: Antibacterial activity against Staphylococcus aureus ATCC 25923 incubated for 18 to 24 hrs by broth microdilution method; type: functional
[2] = Cytotoxicity against mouse RAW264.7 cells assessed as cell survival at <= 32 uM after 24 hrs by MTT assay relative to control; type: cell-based; details: RAW264.7 cells, up to 32 µM, read-out: Activity
[3] = tested on: Staphylococcus epidermidis; assay: Antibacterial activity against Staphylococcus epidermidis ATCC 12228 incubated for 18 to 24 hrs by broth microdilution method; type: functional
[4] = Therapeutic index, ratio of MHC for human RBC to geometric mean of peptide MIC for Escherichia coli ATCC 25922; type: toxicity; details: pooled result: one value given for 6 cell lines, strains, targets or settings, read-out: TI
Escherichia coli [5] = assay: Antibacterial activity against Escherichia coli UB1005 incubated for 18 to 24 hrs by broth microdilution method; type: functional
Staphylococcus aureus [6] = assay: Antibacterial activity against Staphylococcus aureus ATCC 29213 incubated for 18 to 24 hrs by broth microdilution method; type: functional
Salmonella typhimurium = assay: Antibacterial activity against Salmonella enterica serovar typhimurium C77-31 incubated for 18 to 24 hrs by broth microdilution method; type: functional, Salmonella enterica subsp. enterica serovar Typhimurium
[7] = Solubility of the compound; type: physicochemical
Erythrocyte = assay: Haemolytic activity in human erythrocytes assessed as lowest concentration causing 5% hemolysis after 1 hr; type: ADME, cell-based
Escherichia coli [8] = assay: Antibacterial activity against Escherichia coli ATCC 25922 incubated for 18 to 24 hrs by broth microdilution method; type: functional
Lipopolysaccharide (LPS) = assay: Displacement of BODIPY-TR-cadaverine from Escherichia coli O111:B4 LPS by spectrofluorophotometric method
Escherichia coli [9] = assay: Induction of cytoplasmic membrane depolarization in Escherichia coli UB1005 at 2 uM by DiSC3-5 dye based fluorescence method; type: organism-based
Escherichia coli [10] = assay: Induction of outer membrane permeabilization in Escherichia coli UB1005 assessed as increase in NPN uptake at 0.5 to 4 uM by spectrofluorophotometric assay; type: organism-based
Pseudomonas aeruginosa = assay: Antibacterial activity against Pseudomonas aeruginosa PAO1 at sub-MIC treated over 35 serial passages by resistant development assay; type: functional, organism-based
Acinetobacter baumannii [11] = assay: Antibacterial activity against Acinetobacter baumannii AB1902 clinical isolate incubated for 18 to 24 hrs by broth microdilution method; type: functional
Escherichia coli [12] = assay: Inhibition of swimming motility of Escherichia coli ATCC 25922 at 1 to 4 uM after 16 hrs; type: functional, organism-based
Escherichia coli [13] = assay: Resistance index, ratio of MIC for antibacterial activity against Escherichia coli ATCC 25922 treated over 35 serial passage by sequential passaging method to MIC for antibacterial activity against Escherichia coli ATCC 25922 incubated for 18 to 24 hrs by broth microdilution method; type: functional
Acinetobacter baumannii [14] = assay: Antibacterial activity against Acinetobacter baumannii AB1901 clinical isolate incubated for 18 to 24 hrs by broth microdilution method; type: functional

SMILES	MIC (Staphylococcus aureus [1]) [µM]	viability at 24 h [2] [%]	MIC [3] [µM]	selectivity ratio [4]	MIC (Escherichia coli [5]) [µM]	MIC (Staphylococcus aureus [6]) [µM]	MIC (Salmonella typhimurium) [µM]	solubility [7]	MHC (Erythrocyte) [µM]	MIC (Escherichia coli [8]) [µM]	Activity (Lipopolysaccharide (LPS))	Activity (Escherichia coli [9])	Activity (Escherichia coli [10])	Activity (Pseudomonas aeruginosa)	MIC (Acinetobacter baumannii [11]) [µM]	inhibition (Escherichia coli [12])	Ratio (Escherichia coli [13])	MIC (Acinetobacter baumannii [14]) [µM]
CC(C)C[C@H](NC(=O)[C@H](CCCNC(=N)N)NC(=O)[C@H](Cc1c[nH]c2ccccc12)NC(=O)[C@H](CCCNC(=N)N)NC(=O)[C@@H](NC(=O)[C@H](Cc1c[nH]c2ccccc12)NC(=O)[C@H](Cc1c[nH]c2ccccc12)NC(=O)[C@H](CCCNC(=N)N)NC(=O)[C@H](CC(C)C)NC(=O)[C@H](Cc1c[nH]c2ccccc12)NC(=O)[C@@H](N)CCCNC(=N)N)[C@@H](C)O)C(=O)N[C@@H](CCCCN)C(N)=O (H-RWLRWWTRWRLK-NH2)	2 (≈ 3.68 µg/mL)	≥ 70	4 (≈ 7.37 µg/mL)	40.4	2 (≈ 3.68 µg/mL)	4 (≈ 7.37 µg/mL)	4 (≈ 7.37 µg/mL)	Insoluble	128	4 (≈ 7.37 µg/mL)	–	–	–	–	–	–	–	–
CC[C@H](C)[C@H](NC(=O)CN)C(=O)NCC(=O)N[C@@H](C)C(=O)N[C@H](C(=O)N[C@@H](CC(C)C)C(=O)N[C@@H](CCCCN)C(=O)N[C@H](C(=O)N[C@@H](CC(C)C)C(=O)N[C@H](C(=O)N[C@H](C(=O)NCC(=O)N[C@@H](CC(C)C)C(=O)N1CCC[C@H]1C(=O)N[C@@H](C)C(=O)N[C@@H](CC(C)C)C(=O)N[C@H](C(=O)N[C@@H](CO)C(=O)N[C@@H](Cc1c[nH]c2ccccc12)C(=O)N[C@H](C(=O)N[C@@H](CCCCN)C(=O)N[C@@H](CCCNC(=N)N)C(=O)N[C@@H](CCCCN)C(=O)N[C@@H](CCCNC(=N)N)C(=O)N[C@@H](CCC(N)=O)C(=O)N[C@@H](CCC(N)=O)C(N)=O)[C@@H](C)CC)[C@@H](C)CC)[C@@H](C)O)[C@@H](C)O)C(C)C)C(C)C [MELITTIN]	–	–	–	–	–	–	–	–	0.25	–	Dose-dependent effect	Active	Active	inactive	2 (≈ 5.69 µg/mL)	Active	4	2 (≈ 5.69 µg/mL)
